Test results from patent US20260184708A1, “PYRIDAZINONES AND METHODS OF USE THEREOF” (GFB (ABC), LLC, priority 2017, published 2026).
pIC50: −log10 of the molar value.

Molecular target: T1, TRPC5 (Homo sapiens, UniProt Q9UL62)
T1 construct: expressed in transfected cells; host or cells: HEK 293
T1 sequence (Q9UL62 1-973): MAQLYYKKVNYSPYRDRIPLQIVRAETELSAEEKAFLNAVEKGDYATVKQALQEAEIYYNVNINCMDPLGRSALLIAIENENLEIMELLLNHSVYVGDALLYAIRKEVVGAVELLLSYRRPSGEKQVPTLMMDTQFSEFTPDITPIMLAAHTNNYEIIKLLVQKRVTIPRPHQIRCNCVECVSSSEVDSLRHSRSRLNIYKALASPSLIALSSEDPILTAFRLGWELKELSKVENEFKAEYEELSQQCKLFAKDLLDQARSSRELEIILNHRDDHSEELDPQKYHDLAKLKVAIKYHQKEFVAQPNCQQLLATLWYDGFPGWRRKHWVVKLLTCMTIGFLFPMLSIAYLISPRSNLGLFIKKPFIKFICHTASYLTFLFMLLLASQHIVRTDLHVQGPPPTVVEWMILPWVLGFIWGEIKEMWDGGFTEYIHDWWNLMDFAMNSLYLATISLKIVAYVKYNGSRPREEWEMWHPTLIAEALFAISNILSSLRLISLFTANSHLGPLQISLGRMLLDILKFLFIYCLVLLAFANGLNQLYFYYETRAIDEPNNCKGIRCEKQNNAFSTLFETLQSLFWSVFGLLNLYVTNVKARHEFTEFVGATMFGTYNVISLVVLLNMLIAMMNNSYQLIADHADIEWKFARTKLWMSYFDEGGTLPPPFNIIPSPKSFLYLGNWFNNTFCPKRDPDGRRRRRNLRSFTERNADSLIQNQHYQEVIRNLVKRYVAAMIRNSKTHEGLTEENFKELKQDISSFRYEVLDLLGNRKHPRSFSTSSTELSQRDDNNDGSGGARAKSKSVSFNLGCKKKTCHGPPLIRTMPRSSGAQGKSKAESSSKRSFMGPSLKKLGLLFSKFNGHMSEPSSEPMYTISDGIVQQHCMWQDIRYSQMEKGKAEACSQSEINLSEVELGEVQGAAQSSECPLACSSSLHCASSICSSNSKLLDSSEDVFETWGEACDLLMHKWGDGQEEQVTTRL
Assay: TRPC5 Fluorescence Assay - FLIPR format (HEK-TREx hTRPC5, Riluzole stimulation)
Assay type: cell-based
Settings: Table 7, read-out: TRPC5-FLIPR IC50
Experimental: • Cell line: ICLN-001633 • Base Cell: HEK • Channel: TRPC5 • Species: Human • Thaw ID: multiple • Passage: multiple
FLIPR Assay Buffer (Earls Balanced Salt Solution (EBSS) was prepared as follows:
Test Agent Preparation: Compounds were made up to, or supplied as, a 10 mM stock solution generally using DMSO as the vehicle. 10-point dose response curves were generated using the Echo-550 acoustic dispenser. Compound source plates were made by serially diluting compound stocks to create 10 mM, 1 mM, and 0.1 mM solutions in DMSO into Echo certified LDV plates. The Echo then serially spotted 100% DMSO stock solutions into source dose response plates to generate a 4-fold dilution scheme. 100% DMSO was added to the spotted dose response plates to bring the final volume to 5 μl. […] of the dose response stock plate was then spotted into pre-incubation and stimulation assay plates. 50 μl of pre-incubation buffer and 100 μl of stimulation buffer was then added to the plates resulting in a final assay test concentration range of 30 μM to 0.0001 μM with a final DMSO concentration of 0.3%.
Experimental Methods: Cells expressing TRPC5 (HEK-TREx hTRPC5) are plated onto 384 well, black PDL-coated microplates and maintained in TRPC5 growth media the day prior to use for experiments. TRPC5 expression is induced by the application of […] tetracycline at the time of plating. Media is removed from the plates and 10 μl of 4 μM of Fluo-4 AM (mixed with equal volume of Pluronic F-127) in EBSS is added to the cells. Cells are incubated at room temperature, protected from light, for 60-90 minutes. After the incubation period, the dye is removed and replaced with 10 μl of EBSS. Cell, pre-incubation and stimulation plates are loaded onto the FLIPR-II and the assay is initiated. The FLIPR measures a 10 second baseline and then adds 10 μl of 2× compounds (or controls). Changes in fluorescence are monitored for an additional 5 minutes. After the 5 minute pre-incubation, 20 μl of 2× Riluzole (with 1× compound or controls) is added to the cell plate. The final Riluzole stimulation concentration in the assay is 30 μM. After the Riluzole addition, changes in fluorescence are monitored for an additional 5 minutes.
Test Agent Effect: Test agent modulation of TRPC5 calcium response was determined as follows. After the Riluzole, fluorescence was monitored for a 5 minute period. The maximum relative fluorescene response (minus the control response of 1 μM of the control inhibitor) was captured and exported from the FLIPR. Test agent effect was calculated as % inhibition using the following formula: % inhibition=((RFU Test Agent−Plate Average RFU REF INHIB)/(Plate Average RFU Control−Plate Average RFU REF INHIB))×100

Row | pIC50 | Structure (SMILES)
1 | 6.00 to 11.00 | COCc1ncccc1CN1CCN(c2cn[nH]c(=O)c2Cl)CC1 [drawing 926]
2 | 6.00 to 11.00 | CCc1ncccc1[C@H](C)n1nnc2c1CCN(c1cn[nH]c(=O)c1Cl)C2 [drawing 928]
3 | 6.00 to 11.00 | O=c1[nH]ncc(N2CCc3c(ncn3Cc3cccnc3CC(F)F)C2)c1Cl [drawing 929]
4 | 6.00 to 11.00 | COc1nn(Cc2ccccc2C(F)F)c2c1CN(c1cn[nH]c(=O)c1Cl)CC2 [drawing 931]
5 | 6.00 to 11.00 | O=c1[nH]ncc(N2CCc3c(c(=O)[nH]n3Cc3ccccc3C(F)F)C2)c1Cl [drawing 936]

Same assay, conditions: Table 9, read-out: hTRPCS-FLIPR IC50

Row | pIC50 | Structure (SMILES)
6 | 6.00 to 11.00 | COCc1ncccc1CN1CCN(c2cn[nH]c(=O)c2Cl)CC1 [drawing 1030]
7 | 5.30 to 6.00 | O=c1[nH]ncc(N2CCN(Cc3ccccc3C(F)(F)F)CC2)c1Cl [drawing 1036]

Same assay, conditions: Table 10, read-out: TRPCS-FLIPR IC50

Row | pIC50 | Structure (SMILES)
8 | 6.00 to 11.00 | O=c1[nH]ncc(N2CCc3c(cnn3Cc3ccc(F)cc3CN3CCOCC3)C2)c1Cl
9 | 6.00 to 11.00 | CCc1ncsc1Cn1nnc2c1CCN(c1cn[nH]c(=O)c1Cl)C2
10 | 5.30 to 6.00 | O=c1[nH]ncc(N2CCc3c(nnn3Cc3ccc(F)cc3CN3CCOCC3)C2)c1Cl
11 | 6.00 to 11.00 | O=c1[nH]ncc(N2CCc3c(nc(Oc4cccc(F)c4)n3Cc3ccccc3C(F)(F)F)C2)c1Cl
12 | 5.30 to 6.00 | CN(C)Cc1cc(F)ccc1Cn1nnc2c1CCN(c1cn[nH]c(=O)c1Cl)C2
13 | 5.30 to 6.00 | O=c1[nH]ncc(N2CCc3c(nnn3Cc3ccccc3CO)C2)c1Cl
14 | 6.00 to 11.00 | CCCOc1nc2c(n1Cc1ccccc1C(F)(F)F)CCN(c1cn[nH]c(=O)c1Cl)C2
15 | 6.00 to 11.00 | N#Cc1nn(Cc2ccccc2C(F)F)c2c1CN(c1cn[nH]c(=O)c1Cl)CC2
16 | 5.30 to 6.00 | C[C@@H](c1ccc(F)cc1CN1CCOCC1)n1nnc2c1CCN(c1cn[nH]c(=O)c1Cl)C2
17 | 6.00 to 11.00 | O=c1[nH]ncc(N2CCc3c(cnn3Cc3cccnc3[C@@H](O)C(F)(F)F)C2)c1Cl
18 | 5.30 to 6.00 | CO[C@@H]1CN(c2cn[nH]c(=O)c2Cl)Cc2nnn(Cc3ccccc3C(F)F)c21
19 | 6.00 to 11.00 | COc1nn(Cc2ccccc2C(F)(F)F)c2c1CN(c1cn[nH]c(=O)c1Cl)CC2
20 | 6.00 to 11.00 | O=C(c1nn(Cc2ccccc2C(F)F)c2c1CN(c1cn[nH]c(=O)c1Cl)CC2)N1CCOCC1
21 | 6.00 to 11.00 | C[C@@H]1Cc2c(nnn2[C@H](C)c2ccc(F)cc2C(F)(F)F)CN1c1cn[nH]c(=O)c1Cl
22 | 6.00 to 11.00 | CNC(=O)c1nn(Cc2ccccc2C(F)F)c2c1CN(c1cn[nH]c(=O)c1Cl)CC2
23 | 5.30 to 6.00 | C[C@H](c1ccc(F)cc1CN1CCOCC1)n1nnc2c1CCN(c1cn[nH]c(=O)c1Cl)C2
24 | 6.00 to 11.00 | O=c1[nH]ncc(N2CCc3c(ncn3Cc3cccnc3[C@H](O)C(F)(F)F)C2)c1Cl
25 | 5.30 to 6.00 | N[C@@H](c1cc(F)ccc1Cn1nnc2c1CCN(c1cn[nH]c(=O)c1Cl)C2)C(F)(F)F
26 | 6.00 to 11.00 | C[C@H]1c2nnn([C@@H](C)c3ccc(F)cc3C(F)(F)F)c2CCN1c1cn[nH]c(=O)c1Cl
27 | 5.00 to 5.30 | C[C@@H](c1ccc(F)cc1CN1CCN(C)CC1)n1nnc2c1CCN(c1cn[nH]c(=O)c1Cl)C2
28 | 5.30 to 6.00 | CO[C@H]1CN(c2cn[nH]c(=O)c2Cl)Cc2nnn(Cc3ccccc3C(F)F)c21
29 | 6.00 to 11.00 | C[C@H]1c2nnn([C@@H](C)c3ccccc3C(F)(F)F)c2CCN1c1cn[nH]c(=O)c1Cl
30 | 5.30 to 6.00 | Cn1c(=O)c2c(n1Cc1ccccc1C(F)(F)F)CCN(c1cn[nH]c(=O)c1Cl)C2
31 | 6.00 to 11.00 | N[C@H](c1cc(F)ccc1Cn1nnc2c1CCN(c1cn[nH]c(=O)c1Cl)C2)C(F)(F)F
32 | 6.00 to 11.00 | Cn1c(=O)c2c(n1Cc1ccccc1C(F)F)CCN(c1cn[nH]c(=O)c1Cl)C2
33 | 6.00 to 11.00 | C[C@@H](c1cc(F)ccc1C(F)(F)F)n1nnc2c1CCN(c1cn[nH]c(=O)c1Cl)C2
34 | 5.30 to 6.00 | O=c1[nH]ncc(C2=Cc3nnn(Cc4ccccc4C(F)(F)F)c3CC2)c1Cl
35 | 6.00 to 11.00 | CN(c1ccc(F)cc1C(F)(F)F)c1n[nH]c2c1CCN(c1cn[nH]c(=O)c1Cl)C2
36 | 6.00 to 11.00 | O=c1[nH]ncc(N2CCc3c(Nc4ccc(F)cc4C(F)(F)F)n[nH]c3C2)c1Cl
37 | 6.00 to 11.00 | C[C@H](c1ccc(F)cc1C(F)(F)F)c1n[nH]c2c1CCN(c1cn[nH]c(=O)c1Cl)C2
